The numbers were not newly measured in US20060051490A1, “Food component and processes for the preparation thereof” (priority 2003, published 2006), which cites them from elsewhere.

The conditions of the data set: for solubility in 100 parts of water: in 100 parts of water at room temperature, approximate.

Structures are written as SMILES.

Take `CC(O)C(=O)O` (stereo not shown) [lactic acid]: the miscibility with water result was “miscible with water in all proportions”. As for `O=C(O)CC(O)C(=O)O` (stereo not shown) [malic, malic acid], the “solubility in 100 parts of water” value was roughly 150 parts. Consider `O=C(O)/C=C/C(=O)O` [fumaric, fumaric acid], for which the “solubility in 100 parts of water” value was roughly 1.5 parts. Turning to `CC(=O)O` [Acetic acid, acetic acid], the miscibility with water result is recorded as “miscible with water in all proportions”.
